Assay results reported in ChEMBL document CHEMBL1158145, “Xenofuranones A and B: phenylpyruvate dimers from Xenorhabdus szentirmaii” (J Nat Prod, 2006).
Converted amounts (≈) assume the structure as drawn.

Tested on: L929
Assay: Cytotoxicity against mouse L929 cells
Format: cell-based

COC1=C(c2ccccc2)C(Cc2ccccc2)OC1=O (stereo unspecified) [XENOFURANONE A]
IC50: 18 µg/mL (≈ 64.2 µM)
